Test results: patent US11505579B2, “Methods of treatment and related compositions” (ASCEND BIOPHARMACEUTICALS LTD, priority 2020, dated 2022)

Tests used:
[1] = system: operable basal cell carcinoma; conditions: Vismodegib 150 mg daily over 12 weeks; Sofen et al. (2015); cited from earlier work
[2] = system: B16F10 tumours; test: Tumour growth and survival of B16F10 tumour-bearing mice (B16F10-e357 study); type: in vivo, mouse; conditions: for mice alive after day 12: culled at ethical end point
Description: The B16F10 murine colon carcinoma cell line was maintained in DMEM medium containing 10% fetal bovine serum, 2 mM glutamine, 100 units/mL sodium penicillin G, 25 μg/mL gentamicin, and 100 μg/mL streptomycin sulfate. The tumour cells were cultured in tissue culture flasks in a humidified incubator at 37° C., in an atmosphere of 5% CO2 and 95% air.
B16F10 cells were harvested during log phase growth and resuspended in PBS. Each mouse was injected subcutaneously in the right flank with 5×10^5 cells (in a 0.1 mL cell suspension). Tumours were calipered in two dimensions to monitor growth as their mean volume approached the desired 30 to 60 mm^3 range. Tumour size, in mm^3, was calculated from:
[formula] where w=width and l=length, in mm, of the tumour. Tumour weight can be estimated based on the assumption that 1 mg is equivalent to 1 mm^3 of tumour volume.
Eight days after tumour cell implantation, on Day 1 of the study, animals were sorted into eight groups (n=10 per group) according to tumour volume, with individual tumour volumes ranging from 32 to 63 mm^3 and group mean tumour volumes ranging from 41 to 42 mm^3. Tumour progression was monitored using caliper measurements three times weekly for the duration of the study.
Vismodegib and Ad5-mIFNg (stock concentration 3.3×10^12 viral particles/mL) were stored at −80° C. prior to formulation. On each day of dosing, Vismodegib was dissolved in vehicle 2 (75% PEG400:25% D5W (5% dextrose in water)) to obtain 5 mg/mL and 10 mg/mL dosing solutions which delivered a dose of 50 mg/kg and 100 mg/kg when administered in a volume of 10 mL/kg (0.2 mL per 20 g mouse), adjusted to the body weight of each animal.
On the first day of dosing, Ad5-mIFNg was thawed rapidly and diluted in vehicle 1 (1 M saccharose, 54 mg/L Tween® 80, 10 mM Tris, 1 mM MgCl2, 150 mM NaCl, pH 8) to obtain dosing solutions of 5×10^11 particles/mL and 2×10^11 particles/mL, which delivered 1×10^10 particles/animal when dosed in a fixed volume of 20 μL and 50 μL per animal, respectively.
On Day 1 of the study, female mice bearing established B16F10 tumours were sorted into eight groups (n=10 per group) and began dosing according to the treatment plan summarized in Table 2. Vehicle 1 and Ad5-mIFNg (1×10^10 particles per animal) were administered intratumourally (itu) in a fixed volume of either 20 μL or 50 μL; vehicle 2 and Vismodegib were administered orally (po) in a volume of 10 mL/kg (0.2 mL per 20 g mouse), adjusted to the body weight of each animal. The groups were as follow:
Group 1 served as the control group and received 20 μL vehicle 1 itu once a day (qd) for three days (qd×3) and vehicle 2 po qd×7.
Group 2 received 20 μL vehicle 1 itu qd×3 and 50 mg/kg vismodegib po qd×7.
Group 3 received 1×10^10 particles/animal Ad5-mIFNg in 20 μL itu qd×3 and vehicle 2.
Group 4 received 1×10^10 particles/animal Ad5-mIFNg 1 itu qd×3 and 50 mg/kg vismodegib 2 po qd×7.
Group 5 received 20 μL vehicle 1 itu once a week for a week (qwk×1) followed by 50 μL vehicle 1 itu qwk×1 (starting on Day 8) in addition to vehicle 2 po three times a week (tiwk) to Day 10.
Group 6 received 20 μL vehicle 1 itu once a week for a week (qwk×1) followed by 50 μL vehicle 1 itu qwk×1 (starting on Day 8) and 100 mg/kg Vismodegib in vehicle 2 po tiwk to Day 13. […]

For `CS(=O)(=O)c1ccc(C(=O)Nc2ccc(Cl)c(-c3ccccn3)c2)c(Cl)c1` [Vismodegib], the “loco-regional CHC” value [1] is listed as 16%, the “tumour growth compared to the control vehicle treated groups” value ([2]; G2: Vismodegib 50 mg/kg po qd×7, vehicle 1 itu qd×3) is listed as “did not significantly reduce tumour growth” and the “mice alive after day 12” value ([2]; G2: Vismodegib 50 mg/kg po qd×7) is listed as “none”. The “mice still alive on day 36 (number of mice)” value ([2]; G2: Vismodegib only 50 mg/kg po qd×7, day 36) was “no mice”, the “tumour growth compared to the control vehicle treated groups” value ([2]; G6: Vismodegib 100 mg/kg po tiwk×3, vehicle 1 itu) was “did not significantly reduce tumour growth” and the “mice alive after day 12” value ([2]; G6: Vismodegib 100 mg/kg po tiwk×3) was “none”.
